Experimental data taken from ChEMBL document CHEMBL6177997, “Design, Synthesis, and Evaluation of Novel ROCK Inhibitors for Glaucoma Treatment: Insights into In Vitro and In Vivo Efficacy and Safety” (J Med Chem, 2025).
Activity calls are given as the source filed them. The rule behind the calls is not given here.

Tests used:
[1] = Induction of apoptosis in H2O2-induced human HTM cells at 1 uM pretreated with compound for 1 hr followed by H2O2 induction and measured after 2 hrs by Annexin V AF647/PI staining based flow cytometry analysis (reference value: 13.47%); format: functional; conditions: time 3 hrs
[2] = molecular target: T1, MAP kinase-interacting serine/threonine-protein kinase 1 (Homo sapiens, UniProt Q9BUB5); test: Inhibition of MNK1 (unknown origin) at 5 uM preincubated for 10 mins followed by substrate addition and measured after 60 mins by ADP-glo kinase assay relative to control; conditions: time 70.0 min
Target sequence in this assay (Q9BUB5 whole entry, looked up): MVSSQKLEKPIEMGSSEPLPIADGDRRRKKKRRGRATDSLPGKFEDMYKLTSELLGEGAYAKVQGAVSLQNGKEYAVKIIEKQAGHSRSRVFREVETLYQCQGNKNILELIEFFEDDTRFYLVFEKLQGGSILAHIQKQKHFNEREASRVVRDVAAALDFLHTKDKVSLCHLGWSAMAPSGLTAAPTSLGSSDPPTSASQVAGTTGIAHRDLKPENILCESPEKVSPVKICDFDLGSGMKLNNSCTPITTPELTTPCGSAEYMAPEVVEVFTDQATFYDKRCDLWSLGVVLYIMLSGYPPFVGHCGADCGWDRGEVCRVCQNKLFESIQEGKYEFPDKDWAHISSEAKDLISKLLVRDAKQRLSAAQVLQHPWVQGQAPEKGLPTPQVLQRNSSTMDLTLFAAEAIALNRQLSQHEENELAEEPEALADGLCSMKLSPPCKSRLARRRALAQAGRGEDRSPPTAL

[3] = molecular target: Serine/threonine-protein kinase SIK2 (Homo sapiens) (UniProt Q9H0K1); test: Inhibition of human QIK using magnesium acetate as substrate at 1 uM measured after 120 mins in presence of [gamma33P]ATP by scintillation counting method relative to control
HTM [4] = test: Anti-inflammatory activity against human HTM cells assessed as inhibition of H2O2-induced IL-6 secretion; format: functional, cell-based
[5] = molecular target: Mitogen-activated protein kinase kinase kinase kinase 4 (Homo sapiens) (UniProt O95819); test: Inhibition of human HGK using magnesium acetate as substrate at 1 uM measured after 120 mins in presence of [gamma33P]ATP by scintillation counting method relative to control
[6] = molecular target: MAP kinase-interacting serine/threonine-protein kinase 2 (Homo sapiens) (UniProt Q9HBH9); test: Inhibition of human MNK2 using magnesium acetate as substrate at 1 uM measured after 120 mins in presence of [gamma33P]ATP by scintillation counting method relative to control
Mitochondrial membrane = test: Induction of mitochondrial membrane potential in human HTM cells at 1 uM incubated for 24 hrs by JC-1 staining based flow cytometry analysis
Homo sapiens [7] = species: Homo sapiens; test: Inhibition of human PKA using magnesium acetate as substrate at 1 uM measured after 120 mins in presence of [gamma33P]ATP by scintillation counting method relative to control
HTM [8] = test: Anti-inflammatory activity against human HTM cells assessed as inhibition of H2O2-induced i-NOS secretion; format: functional, cell-based
HTM [9] = test: Induction of morphological changes in human HTM cells assessed as appearance of cell contraction at 15 uM incubated for 10 hrs by light microscopic analysis; format: functional, cell-based
[10] = molecular target: Protein kinase C (PKC) (Homo sapiens) (UniProt O94806+P41743+P17252+P05129+Q05655+P05771+Q05513+Q02156+P24723+Q15139+Q04759); test: Inhibition of human PKC using magnesium acetate as substrate at 1 uM measured after 120 mins in presence of [gamma33P]ATP by scintillation counting method relative to control; format: protein assay
[11] = molecular target: T1, MAP kinase-interacting serine/threonine-protein kinase 1; test: Inhibition of human MNK1 using magnesium acetate as substrate at 1 uM measured after 120 mins in presence of [gamma33P]ATP by scintillation counting method relative to control
Target sequence in this assay (Q9BUB5 whole entry, looked up): as above

HTM [12] = test: Induction of morphological changes in human HTM cells at 3 uM incubated for 10 hrs by light microscopic analysis; format: functional, cell-based
[13] = molecular target: T2, Rho-associated protein kinase 2 (Homo sapiens, UniProt O75116); test: Inhibition of human ROCK2 using magnesium acetate as substrate at 1 uM measured after 120 mins in presence of [gamma33P]ATP by scintillation counting method relative to control
Target sequence in this assay (O75116 whole entry, looked up): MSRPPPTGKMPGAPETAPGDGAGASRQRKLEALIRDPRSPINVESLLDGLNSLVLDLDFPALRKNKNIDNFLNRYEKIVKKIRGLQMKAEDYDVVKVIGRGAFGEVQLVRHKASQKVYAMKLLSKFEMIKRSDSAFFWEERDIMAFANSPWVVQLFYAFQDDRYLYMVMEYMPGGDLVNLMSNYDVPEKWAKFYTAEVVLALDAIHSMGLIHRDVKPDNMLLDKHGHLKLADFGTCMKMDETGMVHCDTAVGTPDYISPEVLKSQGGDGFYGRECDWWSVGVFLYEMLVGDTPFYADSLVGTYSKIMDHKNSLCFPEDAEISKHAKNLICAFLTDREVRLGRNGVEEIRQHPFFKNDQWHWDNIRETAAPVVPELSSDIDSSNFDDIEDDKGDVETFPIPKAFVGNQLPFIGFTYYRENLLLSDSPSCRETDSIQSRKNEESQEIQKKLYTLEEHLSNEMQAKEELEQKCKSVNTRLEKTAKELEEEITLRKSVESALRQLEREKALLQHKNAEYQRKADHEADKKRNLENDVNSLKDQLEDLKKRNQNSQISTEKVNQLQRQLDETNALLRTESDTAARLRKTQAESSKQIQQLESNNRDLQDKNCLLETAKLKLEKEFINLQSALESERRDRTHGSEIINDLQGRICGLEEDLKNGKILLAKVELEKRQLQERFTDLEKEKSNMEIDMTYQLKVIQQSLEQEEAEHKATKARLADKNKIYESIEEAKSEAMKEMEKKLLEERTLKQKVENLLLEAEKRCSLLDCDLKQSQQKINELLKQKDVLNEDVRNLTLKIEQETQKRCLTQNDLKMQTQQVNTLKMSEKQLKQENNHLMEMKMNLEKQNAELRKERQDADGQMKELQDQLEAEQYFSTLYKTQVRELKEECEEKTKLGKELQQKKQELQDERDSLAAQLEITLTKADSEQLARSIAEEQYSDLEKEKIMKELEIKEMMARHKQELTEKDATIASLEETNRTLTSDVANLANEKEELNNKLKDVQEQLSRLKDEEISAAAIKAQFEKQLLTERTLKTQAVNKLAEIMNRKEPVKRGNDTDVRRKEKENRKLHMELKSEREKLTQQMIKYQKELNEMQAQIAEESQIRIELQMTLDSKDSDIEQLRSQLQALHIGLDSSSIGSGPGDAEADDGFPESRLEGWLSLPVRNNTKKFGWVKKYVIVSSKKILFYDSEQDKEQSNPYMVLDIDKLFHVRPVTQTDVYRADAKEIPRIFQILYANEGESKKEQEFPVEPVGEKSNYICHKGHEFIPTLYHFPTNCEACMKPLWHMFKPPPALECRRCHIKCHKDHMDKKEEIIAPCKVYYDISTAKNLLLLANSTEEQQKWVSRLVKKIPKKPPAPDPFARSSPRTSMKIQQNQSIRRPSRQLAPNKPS

HTM [14] = test: Inhibition of H2O2-induced ROS production in human HTM cells assessed as decrease in green fluorescence at 1 uM preincubated for 1 hrs followed by H2O2 induction for 2 hrs and measured after 30 mins by DCFH-DA based fluorescence microscopic analysis; format: functional, cell-based; conditions: time 3.5 hrs
HTM [15] = test: Inhibition of TGF-beta2 induced collagen 1A expression in human HTM cells at 1 uM pretreated with compound for 2 hrs followed by TGF-beta2 induction and measured after 24 hrs; format: functional, cell-based; conditions: time 26.0 hrs
HTM [16] = test: Inhibition of TGF-beta2 induced alpha-SMA expression in human HTM cells at 1 uM pretreated with compound for 2 hrs followed by TGF-beta2 induction and measured after 24 hrs; format: functional, cell-based; conditions: time 26.0 hrs
[17] = Toxicity in rabbit assessed as appearance of conjunctival congestion by measuring ocular irritation score at 0.1 % TOP administration on left eye measured at 7 days by draize eye irritation test; format: tissue-based, Oryctolagus cuniculus; conditions: in vivo, topical_or_ocular, 168 h, time 7 day
HTM [18] = test: Induction of morphological changes in human HTM cells assessed as appearance of cell contraction at 45 uM incubated for 10 hrs by light microscopic analysis; format: functional, cell-based
HTM [19] = test: Induction of morphological changes in human HTM cells at 0.1 uM incubated for 10 hrs in presence of eFT508 by light microscopic analysis; format: functional, cell-based
Oryctolagus cuniculus [20] = species: Oryctolagus cuniculus; test: Anti-glaucoma activity in methylcellulose-induced acute intraocular hypertensive rabbit model assessed as reduction in intraocular pressure at 0.1 %, TOP measured at 8 hrs; format: functional
[21] = Cytotoxicity against human HTM cells assessed as inhibition of cell proliferation at 45 uM incubated for 24 hrs by MTT assay; format: toxicity, cell-based
HTM [22] = test: Anti-inflammatory activity against human HTM cells assessed as inhibition of H2O2-induced NF-kappaB secretion; format: functional, cell-based
[23] = molecular target: T3, Rho-associated protein kinase 1 (Homo sapiens, UniProt Q13464); test: Inhibition of ROCK1 (unknown origin) incubated for 40 mins in presence of ATP by ADP-glo assay
Target sequence in this assay (Q13464 whole entry): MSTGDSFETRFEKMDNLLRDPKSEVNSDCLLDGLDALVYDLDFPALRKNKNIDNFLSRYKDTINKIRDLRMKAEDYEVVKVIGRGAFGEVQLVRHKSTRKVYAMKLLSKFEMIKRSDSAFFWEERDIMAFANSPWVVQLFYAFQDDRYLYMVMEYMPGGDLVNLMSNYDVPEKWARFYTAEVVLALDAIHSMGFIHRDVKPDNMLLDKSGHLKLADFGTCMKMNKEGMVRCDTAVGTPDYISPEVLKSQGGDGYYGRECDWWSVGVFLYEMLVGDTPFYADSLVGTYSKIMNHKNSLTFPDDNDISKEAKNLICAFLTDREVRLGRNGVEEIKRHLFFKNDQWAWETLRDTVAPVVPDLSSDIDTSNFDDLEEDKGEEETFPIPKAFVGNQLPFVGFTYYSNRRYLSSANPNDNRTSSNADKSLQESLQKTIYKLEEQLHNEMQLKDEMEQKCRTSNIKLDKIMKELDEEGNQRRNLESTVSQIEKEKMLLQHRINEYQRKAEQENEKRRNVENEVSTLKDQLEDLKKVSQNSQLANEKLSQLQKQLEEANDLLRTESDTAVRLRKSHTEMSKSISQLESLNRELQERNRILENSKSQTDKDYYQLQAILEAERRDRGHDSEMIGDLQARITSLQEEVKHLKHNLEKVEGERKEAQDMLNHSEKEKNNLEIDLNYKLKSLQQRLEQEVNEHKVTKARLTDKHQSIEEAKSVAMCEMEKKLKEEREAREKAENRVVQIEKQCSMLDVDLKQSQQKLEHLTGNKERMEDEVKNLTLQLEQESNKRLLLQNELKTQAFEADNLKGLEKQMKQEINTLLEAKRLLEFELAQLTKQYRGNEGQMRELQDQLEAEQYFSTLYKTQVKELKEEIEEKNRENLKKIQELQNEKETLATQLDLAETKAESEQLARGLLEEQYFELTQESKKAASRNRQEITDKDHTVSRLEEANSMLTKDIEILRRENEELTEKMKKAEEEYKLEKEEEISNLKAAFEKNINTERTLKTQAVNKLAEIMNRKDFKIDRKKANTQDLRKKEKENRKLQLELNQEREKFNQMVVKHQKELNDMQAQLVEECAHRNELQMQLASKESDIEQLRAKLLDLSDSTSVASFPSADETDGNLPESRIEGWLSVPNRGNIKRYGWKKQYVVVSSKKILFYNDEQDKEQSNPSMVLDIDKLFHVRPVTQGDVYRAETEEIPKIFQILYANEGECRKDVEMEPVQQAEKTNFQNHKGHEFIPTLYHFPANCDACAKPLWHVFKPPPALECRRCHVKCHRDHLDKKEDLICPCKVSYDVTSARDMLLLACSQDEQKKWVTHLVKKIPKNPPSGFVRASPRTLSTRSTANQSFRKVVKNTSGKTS

Oryctolagus cuniculus [24] = species: Oryctolagus cuniculus; test: Anti-glaucoma activity in methylcellulose-induced high acute intraocular hypertensive rabbit model assessed as reduction in intraocular pressure at 0.1 %, TOP measured at 4 hrs; format: functional
[25] = molecular target: T3, Rho-associated protein kinase 1; test: Inhibition of human ROCK1 using magnesium acetate as substrate at 1 uM measured after 120 mins in presence of [gamma33P]ATP by scintillation counting method relative to control
Oryctolagus cuniculus [26] = species: Oryctolagus cuniculus; test: Anti-glaucoma activity in methylcellulose-induced acute intraocular hypertensive rabbit model assessed as reduction in intraocular pressure at 0.1 %, TOP measured at 4 hrs; format: functional
HTM [27] = test: Induction of F-actin depolymerization in human HTM cells at 1 to 5 uM incubated for 4 hrs by rhodamine-phalloidin staining based analysis; format: cell-based; conditions: dose 1-5 µM
[28] = molecular target: T2, Rho-associated protein kinase 2; test: Inhibition of ROCK2 (unknown origin) incubated for 40 mins in presence of ATP by ADP-glo assay
Target sequence in this assay (O75116 whole entry): as the sequence (O75116 whole entry, looked up) above

HTM [29] = test: Inhibition of cell migration in human HTM cells at 1 uM incubated for 24 to 48 hrs by wound healing assay; format: functional, cell-based; conditions: time 24-48 hrs
[30] = molecular target: MAP kinase-interacting serine/threonine-protein kinase 2 (Homo sapiens) (UniProt Q9HBH9); test: Inhibition of MNK2 (unknown origin) at 5 uM preincubated for 10 mins followed by substrate addition and measured after 60 mins by ADP-glo kinase assay relative to control; conditions: time 70.0 min
Homo sapiens [31] = species: Homo sapiens; test: Inhibition of human PKB using magnesium acetate as substrate at 1 uM measured after 120 mins in presence of [gamma33P]ATP by scintillation counting method relative to control
HTM [32] = test: Inhibition of paxillin expression in human HTM cells at 0.02 to 5 uM; format: functional, cell-based; conditions: dose 0.02-5 µM
[33] = molecular target: T2, Rho-associated protein kinase 2; test: Inhibition of ROCK2 (unknown origin) relative to control; conditions: concentration not given here
Target sequence in this assay (O75116 whole entry, looked up): as above

Oryctolagus cuniculus [34] = species: Oryctolagus cuniculus; test: Anti-glaucoma activity in methylcellulose-induced acute intraocular hypertensive rabbit model assessed as reduction in intraocular pressure at 0.1 %, TOP measured at 2 hrs; format: functional
[35] = molecular target: T1, MAP kinase-interacting serine/threonine-protein kinase 1; test: Inhibition of MNK1 (unknown origin) preincubated for 10 mins followed by substrate addition and measured after 60 mins by ADP-glo kinase assay
Target sequence in this assay (Q9BUB5 whole entry): as the sequence (Q9BUB5 whole entry, looked up) above

HTM [36] = test: Induction of F-actin depolymerization in human HTM cells at 5 uM incubated for 4 hrs by rhodamine-phalloidin staining based analysis; format: cell-based
[37] = Cytotoxicity against human HTM cells assessed as reduction in cell viability at 45 uM incubated for 24 hrs by MTT assay relative to control; format: toxicity, cell-based
HTM [38] = test: Induction of morphological changes in human HTM cells assessed as appearance of rounded cells at 45 uM incubated for 10 hrs by light microscopic analysis; format: functional, cell-based
[39] = Toxicity in rabbit assessed as appearance of conjunctival congestion by measuring ocular irritation score at 0.1 % TOP administration on left eye measured on day 4 by draize eye irritation test; format: tissue-based, Oryctolagus cuniculus; conditions: in vivo, topical_or_ocular, 96 h, time 4 day
[40] = Cytotoxicity against human HTM cells assessed as reduction in cell viability at 15 uM incubated for 24 hrs by MTT assay relative to control; format: toxicity, cell-based
HTM [41] = test: Induction of morphological changes in human HTM cells assessed as appearance of rounded cells at 15 uM incubated for 10 hrs by light microscopic analysis; format: functional, cell-based
[42] = Toxicity in rabbit assessed as appearance of conjunctival congestion by measuring ocular irritation score at 0.1 % TOP administration on left eye measured after 7 days by draize eye irritation test; format: tissue-based, Oryctolagus cuniculus; conditions: in vivo, topical_or_ocular, 168 h, time 7 day
HTM [43] = test: Inhibition of paxillin expression in human HTM cells at 5 uM; format: functional, cell-based

MAP kinase-interacting serine/threonine-protein kinase 2 (Homo sapiens), sequence (Q9HBH9 whole entry, looked up): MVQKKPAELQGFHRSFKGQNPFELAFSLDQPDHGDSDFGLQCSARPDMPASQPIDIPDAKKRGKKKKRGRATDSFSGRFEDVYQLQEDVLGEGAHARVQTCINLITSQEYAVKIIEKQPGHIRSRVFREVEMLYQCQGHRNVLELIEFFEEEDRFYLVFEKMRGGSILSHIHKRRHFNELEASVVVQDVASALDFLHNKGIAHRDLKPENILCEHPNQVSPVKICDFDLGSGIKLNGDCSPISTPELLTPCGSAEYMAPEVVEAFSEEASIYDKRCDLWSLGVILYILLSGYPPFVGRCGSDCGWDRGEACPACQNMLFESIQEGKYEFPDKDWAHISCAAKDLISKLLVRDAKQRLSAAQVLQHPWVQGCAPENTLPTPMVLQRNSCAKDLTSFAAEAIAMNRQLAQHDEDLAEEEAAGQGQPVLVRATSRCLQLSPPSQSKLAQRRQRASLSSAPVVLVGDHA
Mitogen-activated protein kinase kinase kinase kinase 4 (Homo sapiens), sequence (O95819 2-1239 limits assumed): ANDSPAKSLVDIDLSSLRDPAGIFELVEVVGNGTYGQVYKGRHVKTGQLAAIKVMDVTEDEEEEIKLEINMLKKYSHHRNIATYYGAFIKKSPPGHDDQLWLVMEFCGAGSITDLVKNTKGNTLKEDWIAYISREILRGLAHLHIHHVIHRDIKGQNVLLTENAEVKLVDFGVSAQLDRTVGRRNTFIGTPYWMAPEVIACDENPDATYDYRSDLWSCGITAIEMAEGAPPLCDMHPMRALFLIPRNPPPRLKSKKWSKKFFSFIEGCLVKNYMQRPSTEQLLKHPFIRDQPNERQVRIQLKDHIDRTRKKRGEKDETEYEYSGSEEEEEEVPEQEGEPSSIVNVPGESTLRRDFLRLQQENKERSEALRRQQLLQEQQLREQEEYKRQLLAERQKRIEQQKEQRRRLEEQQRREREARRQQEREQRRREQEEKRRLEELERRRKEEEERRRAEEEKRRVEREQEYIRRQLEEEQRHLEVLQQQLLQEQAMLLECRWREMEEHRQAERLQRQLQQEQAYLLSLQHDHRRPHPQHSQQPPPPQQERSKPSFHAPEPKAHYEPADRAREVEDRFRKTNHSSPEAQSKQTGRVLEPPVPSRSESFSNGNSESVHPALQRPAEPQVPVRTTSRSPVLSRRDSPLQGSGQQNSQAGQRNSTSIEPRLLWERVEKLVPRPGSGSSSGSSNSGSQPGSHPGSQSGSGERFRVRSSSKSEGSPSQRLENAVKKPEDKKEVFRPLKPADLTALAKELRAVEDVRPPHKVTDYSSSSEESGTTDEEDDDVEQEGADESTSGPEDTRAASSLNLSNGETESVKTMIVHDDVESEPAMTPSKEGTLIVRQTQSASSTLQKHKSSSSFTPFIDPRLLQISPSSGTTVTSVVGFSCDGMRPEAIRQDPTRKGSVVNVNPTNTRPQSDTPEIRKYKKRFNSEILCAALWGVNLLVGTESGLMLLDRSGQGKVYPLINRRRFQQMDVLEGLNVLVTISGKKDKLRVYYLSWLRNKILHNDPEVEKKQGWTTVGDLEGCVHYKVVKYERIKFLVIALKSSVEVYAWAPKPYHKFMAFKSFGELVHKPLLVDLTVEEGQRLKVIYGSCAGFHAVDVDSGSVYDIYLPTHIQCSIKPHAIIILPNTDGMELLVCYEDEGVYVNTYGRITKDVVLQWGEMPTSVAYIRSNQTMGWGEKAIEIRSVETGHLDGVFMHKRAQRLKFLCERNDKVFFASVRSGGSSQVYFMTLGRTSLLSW

Structure (SMILES) | Activity [1] | Activity (HTM [4]) | Activity (Mitochondrial membrane) | Activity (HTM [8]) | Activity (HTM [9]) | Activity (HTM [12]) | inhibition (HTM [14]) | inhibition (HTM [15]) | inhibition (HTM [16]) | Activity [17] | Activity (HTM [18]) | Activity (Oryctolagus cuniculus [20]) | Activity [21] | inhibition (HTM [22]) | IC50 [23] | Activity (Oryctolagus cuniculus [24]) | Activity (Oryctolagus cuniculus [26]) | IC50 [28] | inhibition (HTM [29]) | inhibition (HTM [32]) | also measured
COc1cccc(CN2CCC(c3cc(-c4ccnc5[nH]ccc45)[nH]n3)CC2)c1 | 34.32% | Active | Active | Active | Active | Minimal_effect; Compound Induced Minimal Changes In Cell Morphology | Active | Active | Active | Non-toxic | Active | 0.22 mmHg | Non-toxic | Active | 123 nM | 5.01 mmHg | 0.89 mmHg | 96.7 nM | inactive | Active | inhibition [2]: 61.6%; inhibition [3]: < 50%; inhibition [5]: < 55%; inhibition [6]: < 50%; inhibition (Homo sapiens [7]): 70%; inhibition [10]: < 55%; inhibition [11]: < 55%; inhibition [13]: 89%; Activity (HTM [19]): Active; inhibition [25]: 85%; Activity (HTM [27]): Active; inhibition [30]: 64.7%; inhibition (Homo sapiens [31]): < 50%
c1cc(-c2cc(C3CCNCC3)n[nH]2)c2cc[nH]c2n1 | 36.77% | Active | inactive | Active | Active | Minimal_effect; Compound Induced Minimal Changes In Cell Morphology | Active | Active | Active | Non-toxic | Active | 2.56 mmHg | Non-toxic | Active | 47.2 nM | – | 5 mmHg | 33.8 nM | inactive | Active | inhibition [33]: 98%; Activity (Oryctolagus cuniculus [34]): 9.38 mmHg; IC50 [35]: 47.2 nM
Cc1ccc(C(=O)OCc2ccc([C@@H](CN)C(=O)Nc3ccc4cnccc4c3)cc2)c(C)c1 | 43.02% | – | inactive | – | – | – | Active | Active | Active | – | – | 4.7 mmHg | – | – | – | 9.5 mmHg | 3.55 mmHg | – | – | – | Activity (HTM [36]): Active; Activity [37]: 80%; Activity (HTM [38]): Active; Activity (Oryctolagus cuniculus [34]): 8.16 mmHg; Activity [39]: Toxic; Activity [40]: 60%; Activity (HTM [41]): Active; Activity [42]: Toxic; inhibition (HTM [43]): Active
